Laboratory results taken from US11767319B2, “Crystalline forms of a selective c-kit kinase inhibitor” (Third Harmonic Bio, Inc., priority 2020, dated 2023).

Tests used:
Type in all cases: physicochemical
[1] = Hydration mapping starting with amorphous compound 1
Method: To establish the hydration map of compound 1, solutions with varying water activity (aw) were prepared and the aw was measured using a water activity meter. Table 13 below details the solvent systems investigated and their corresponding measured water activities.
To prepare amorphous material, 480 mg of Form A of compound 1 was weighed into a vial before being dissolved in 24 mL 1,4-dioxane. The resulting solution was then split evenly between 24 vials before being placed in the chamber of a freeze dryer at −50° C. to completely freeze the samples. The samples were then freeze dried overnight (approx. 18 h) and fluffy off-white solids were recovered. A small sub-sample of solid from one vial was analyzed by XRPD to confirm that amorphization had occurred. Using the other 23 vials of amorphous material, 1 mL of the solutions prepared above was added to each vial to prepare slurries. As before, where solutions were observed a brief manual agitation, an additional ˜10 to 20 mg of amorphous material was added to prepare a slurry. Additional solid was added to the 2-MeTHF, acetone/water (aw of 0.14 and 0.28), methanol/water (aw of 0.11) and acetonitrile/water (aw of 0.11) samples. All slurries were then agitated for 72 h at 25° C. After 72 h, aliquots of solid were isolated via centrifugal filtration and analyzed by XRPD.

[2] = Ethanol/hydrocarbon mixtures slurry study
Method: Using the methods described above for the Form A input and amorphous input experiments, 5×20 mg of Form A slurries and 5×20 mg of amorphous input slurries were prepared by adding 1 mL of solvent (see Table 16 below) to each vial and the resulting slurries were agitated for 24 h at 25° C. After 24 h, aliquots of solid were isolated via centrifugal filtration and analysed by XRPD.

[3] = Form investigation in buffered media; conditions: for XRPD Pattern / pH (24 h): 24 h at 25° C.
Method: To investigate the polymorphic landscape of compound 1 in buffered systems, 5×20 mg of Form A slurries and 5×20 mg of amorphous slurries (amorphous material prepared using the method described in the above hydration mapping experiments) were prepared by adding 1 mL of buffer to each vial and the resulting slurries were agitated for 24 h at 25° C. The pH was measured post-buffer addition and after 24 h agitation. After 24 h, aliquots of solid were isolated via centrifugal filtration and analysed by XRPD.

SMILES: Cc1ccc(-c2noc([C@H]3C[C@@H]3F)n2)cc1NC(=O)c1cnc2ccccn12 [Amorphous Compound 1, N-(5-(5-((1R,2S)-2-fluorocyclopropyl)-1,2,4-oxadiazol-3-yl)-2-methylphenyl)imidazo[1,2-a]pyridine-3-carboxamide]
- XRPD pattern observed, 72 h ([1]; 2-MeTHF, aw 0.0378, 25° C.): Forms A, H^A and D
- XRPD pattern observed, 72 h ([1]; Acetone/Water, aw 0.1363, 25° C.): Form H^A
- XRPD pattern observed, 72 h ([1]; Acetone/Water, aw 0.2621, 25° C.): Form H^A
- XRPD pattern observed, 72 h ([1]; Acetone/Water, aw 0.5455, 25° C.): Form H^A
- XRPD pattern observed, 72 h ([1]; Acetone/Water, aw 0.7082, 25° C.): Form H^A
- XRPD pattern observed, 72 h ([1]; Acetone/Water, aw 0.9439, 25° C.): Form H^A and possibly Form C
- XRPD pattern observed, 72 h ([1]; EtOH/Heptane, aw 0.0300, 25° C.): Form E
- XRPD pattern observed, 72 h ([1]; EtOH/Water, aw 0.1580, 25° C.): Form H^A
- XRPD pattern observed, 72 h ([1]; EtOH/Water, aw 0.3377, 25° C.): Form H^A
- XRPD pattern observed, 72 h ([1]; EtOH/Water, aw 0.4986, 25° C.): Form H^A
- XRPD pattern observed, 72 h ([1]; EtOH/Water, aw 0.7600, 25° C.): Form A and Form H^A and additional peaks
- XRPD pattern observed, 72 h ([1]; EtOH/Water, aw 0.9005, 25° C.): Form A and Form H^A and additional peaks
- XRPD pattern observed, 72 h ([1]; MeCN/Water, aw 0.1060, 25° C.): Form H^A
- XRPD pattern observed, 72 h ([1]; MeCN/Water, aw 0.3664, 25° C.): Form H^A
- XRPD pattern observed, 72 h ([1]; MeCN/Water, aw 0.5573, 25° C.): Form H^A
- XRPD pattern observed, 72 h ([1]; MeCN/Water, aw 0.7300, 25° C.): Form H^A
- XRPD pattern observed, 72 h ([1]; MeCN/Water, aw 0.8946, 25° C.): Form H^A
- XRPD pattern observed, 72 h ([1]; MeOH/Water, aw 0.0963, 25° C.): Form H^A
- XRPD pattern observed, 72 h ([1]; MeOH/Water, aw 0.3242, 25° C.): Form H
- XRPD pattern observed, 72 h ([1]; MeOH/Water, aw 0.5145, 25° C.): Form H^A
- XRPD pattern observed, 72 h ([1]; MeOH/Water, aw 0.6965, 25° C.): Form H^A
- XRPD pattern observed, 72 h ([1]; MeOH/Water, aw 0.9294, 25° C.): Form C
- XRPD pattern observed, 72 h ([1]; Water/2-MeTHF, aw 0.5286, 25° C.): Form H^A
- XRPD pattern observed ([2]; EtOH/Cyclohexane (50:50% v/v), aw 0.025, 24 h at 25° C.): Form E
- XRPD pattern observed ([2]; EtOH/Dodecane (50:50% v/v), aw 0.024, 24 h at 25° C.): Form H^A
- XRPD pattern observed ([2]; EtOH/Hexane (50:50% v/v), aw 0.018, 24 h at 25° C.): Form E
- XRPD pattern observed ([2]; EtOH/Methylcyclohexane (50:50% v/v), aw 0.019, 24 h at 25° C.): Form E
- XRPD pattern observed ([2]; EtOH/Octane (50:50% v/v), aw 0.019, 24 h at 25° C.): Form E
- XRPD Pattern ([3]; NaOH (0.2M)): Form C
- XRPD Pattern ([3]; pH 1.2 (HCl—KCl)): HCl Salt Form
- XRPD Pattern ([3]; pH 4.5 (acetate)): Form F
- XRPD Pattern ([3]; pH 6.8 (phosphate)): Form C
- XRPD Pattern ([3]; pH 8 (PBS)): Form H^B
- pH (Post-Buffer Addition) ([3]; slurry in NaOH (0.2M)): 11.97
- pH (24 h) ([3]; slurry in NaOH (0.2M)): 11.87
- pH (Post-Buffer Addition) ([3]; slurry in pH 1.2 (HCl—KCl)): 1.21
- pH (24 h) ([3]; slurry in pH 1.2 (HCl—KCl)): 1.21
- pH (Post-Buffer Addition) ([3]; slurry in pH 4.5 (acetate)): 4.53
- pH (24 h) ([3]; slurry in pH 4.5 (acetate)): 4.55
- pH (Post-Buffer Addition) ([3]; slurry in pH 6.8 (phosphate)): 6.85
- pH (24 h) ([3]; slurry in pH 6.8 (phosphate)): 6.87
- pH (Post-Buffer Addition) ([3]; slurry in pH 8 (PBS)): 8.01
- pH (24 h) ([3]; slurry in pH 8 (PBS)): 8.11
